Laboratory results reported in US8394967B2, “Antioxidant inflammation modulators: C-17 homologated oleanolic acid derivatives” (Reata Pharmaceuticals, Inc., priority 2008, dated 2013).
Structures can show the parent of a compound that is named as a salt. Where two headings read alike, the source gives them in different places.

How the values were obtained:
[1] = system: NO production in RAW264.7 macrophages; assay: Inhibition of NO production in IFNγ-treated RAW264.7 macrophages (Griess reagent); assay type: cell-based, mouse; details: then 20 ng/ml IFNγ for 24 hours
Method: (§1) FIGS. 1-4, 6 and 8. Inhibition of NO Production. RAW264.7 macrophages were pre-treated with DMSO or drugs at various concentrations (nM) for 2 hours, then treated with 20 ng/ml IFNγ for 24 hours. NO concentration in media was determined using a Griess reagent system; cell viability was determined using WST-1 reagent.
(§2) Nitric Oxide production and cell viability. RAW264.7 macrophages were pre-treated with DMSO or drugs for 2 hours, then treated with recombinant mouse IFNγ (Sigma) for 24 hours. NO concentration in media was determined using the Griess reagent system (Promega). Cell viability was determined using WST-1 reagent (Roche).

RAW264.7 macrophages = assay: Cell viability of RAW264.7 macrophages (WST-1 reagent); assay type: cell-based, mouse; details: read-out: RAW264.7 (20 ng/ml IFNγ) WST-1 IC50
Method: as §1, §2

[2] = Mus musculus, RAW264.7, RAW264.7 macrophages pre-treated 2 hours
[3] = Mus musculus, RAW264.7, 24 h, cell viability, RAW264.7, 20 ng/ml IFNγ 24 hours, WST-1 reagent
[4] = RAW264.7 macrophages pre-treated 2 hours
[5] = cell viability, RAW264.7, 20 ng/ml IFNγ 24 hours, WST-1 reagent

Structure (SMILES) | IC50 [1, 2] [nM] | IC50 (RAW264.7 macrophages; [3]) [nM] | IC50 [1, 4] [nM] | IC50 (RAW264.7 macrophages; [5]) [nM] | IC50 (RAW264.7 macrophages; Mus musculus, RAW264.7, 24 h) [nM]
CC1(C)CC[C@]2([C@@H](O)CCl)CC[C@]3(C)[C@H](C(=O)C[C@@H]4[C@@]5(C)C=C(C#N)C(=O)C(C)(C)[C@@H]5CC[C@]43C)[C@@H]2C1 (single isomer, unassigned) [Compound 63282] | ~25 | > 200 | – | – | –
CC1(C)CC[C@]2(C(O)CBr)CC[C@]3(C)[C@H](C(=O)C[C@@H]4[C@@]5(C)C=C(C#N)C(=O)C(C)(C)[C@@H]5CC[C@]43C)[C@@H]2C1 (single isomer, unassigned) [Compound 63283] | – | – | ~20 | ~200 | –
CC1(C)CC[C@]2(C(O)CBr)CC[C@]3(C)[C@H](C(=O)C[C@@H]4[C@@]5(C)C=C(C#N)C(=O)C(C)(C)[C@@H]5CC[C@]43C)[C@@H]2C1 (single isomer, unassigned) [Compound 63284] | – | – | ~15 | ~200 | –
CC1(C)CC[C@]2(C3CO3)CC[C@]3(C)[C@H](C(=O)C[C@@H]4[C@@]5(C)C=C(C#N)C(=O)C(C)(C)[C@@H]5CC[C@]43C)[C@@H]2C1 (single isomer, unassigned) [Compound 63286] | – | – | ~13 | > 200 | –
CC1(C)CC[C@]2(CN)CC[C@]3(C)[C@H](C(=O)CC4[C@@]5(C)C=C(C#N)C(=O)C(C)(C)C5CC[C@]43C)[C@@H]2C1 (stereo partly drawn) [63214 salt, (6aR,6bR,8aS,12aS,12bR,14bR)-8a-(aminomethyl)-4,4,6a,6b,11,11,14b-heptamethyl-3,13-dioxo-3,4,4a,5,6,6a,6b,7,8,8a,9,10,11,12,12a,12b,13,14,14a,14b-icosahydropicene-2-carbonitrile, trifluoroacetic acid salt] | ~30 | > 200 | – | – | –
COC(=O)C[C@]12CCC(C)(C)C[C@H]1[C@H]1C(=O)C=C3[C@@]4(C)C=C(C#N)C(=O)C(C)(C)[C@@H]4CC[C@@]3(C)[C@]1(C)CC2 [Compound 402-50, methyl-2-((4aR,6aR,6bS,8aR,12aS,14aR,14bS)-11-cyano-2,2,6a,6b,9,9,12a-heptamethyl-10,14-dioxo-1,2,3,4,4a,5,6,6a,6b,7,8,8a,9,10,12a,14,14a,14b-octadecahydropicen-4a-yl)acetate] | ~2.5 | 75 | – | – | –
CC1(C)CC[C@]2(CC(=O)O)CC[C@]3(C)[C@H](C(=O)C=C4[C@@]5(C)C=C(C#N)C(=O)C(C)(C)[C@@H]5CC[C@]43C)[C@@H]2C1 [Compound 402-54, 2-((4aR,6aR,6bS,8aR,12aS,14aR,14bS)-11-cyano-2,2,6a,6b,9,9,12a-heptamethyl-10,14-dioxo-1,2,3,4,4a,5,6,6a,6b,7,8,8a,9,10,12a,14,14a,14b-octadecahydropicen-4a-yl)acetic acid] | ~6 | > 200 | – | – | –
CC1(C)CC[C@]2(CO)CC[C@]3(C)[C@H](C(=O)CC4[C@@]5(C)C=C(C#N)C(=O)C(C)(C)[C@@H]5CC[C@]43C)[C@@H]2C1 (stereo partly drawn) [Compound 402-63, (4aR,6aR,6bR,8aS,12aS,12bR,14bR)-8a-(hydroxymethyl)-4,4,6a,6b,11,11,14b-heptamethyl-3,13-dioxo-3,4,4a,5,6,6a,6b,7,8,8a,9,10,11,12,12a,12b,13,14,14a,14b-icosahydropicene-2-carbonitrile] | ~9 | > 200 | – | – | –
CC(=O)OC[C@]12CCC(C)(C)C(C#N)[C@H]1[C@H]1C(=O)CC3[C@@]4(C)C=CC(=O)C(C)(C)[C@@H]4CC[C@@]3(C)[C@]1(C)CC2 (stereo partly drawn) [Compound 402-65, ((4aS,6aR,6bR,8aR,12aR,14aR,14bS)-1-cyano-2,2,6a,6b,9,9,12a-heptamethyl-10,14-dioxo-1,2,3,4,4a,5,6,6a,6b,7,8,8a,9,10,12a,12b,13,14,14a,14b-icosahydropicen-4a-yl)methyl acetate] | ~12.5 | > 200 | – | – | –
C=C[C@]12CCC(C)(C)C[C@H]1[C@H]1C(=O)CC3[C@@]4(C)C=C(C#N)C(=O)C(C)(C)C4CC[C@@]3(C)[C@]1(C)CC2 (stereo partly drawn) [Compound 63213, (6aR,6bR,8aR,12aS,12bR,14bR)-4,4,6a,6b,11,11,14b-heptamethyl-3,13-dioxo-8a-vinyl-3,4,4a,5,6,6a,6b,7,8,8a,9,10,11,12,12a,12b,13,14,14a,14b-icosahydropicene-2-carbonitrile] | ~40 | ~200 | – | – | –
Cn1nnc(CNC[C@]23CCC(C)(C)C[C@H]2[C@H]2C(=O)C[C@@H]4[C@@]5(C)C=C(C#N)C(=O)C(C)(C)[C@@H]5CC[C@@]4(C)[C@]2(C)CC3)n1 [Compound 63233, (4aR,6aR,6bR,8aS,12aS,12bR,14aR,14bR)-4,4,6a,6b,11,11,14b-heptamethyl-8a-(((2-methyl-2H-tetrazol-5-yl)methylamino)methyl)-3,13-dioxo-3,4,4a,5,6,6a,6b,7,8,8a,9,10,11,12,12a,12b,13,14,14a,14b-icosahydropicene-2-carbonitrile] | – | – | – | – | > 200
CC1(C)CC[C@]2(CSc3ccccc3)CC[C@]3(C)[C@H](C(=O)C[C@@H]4[C@@]5(C)C=C(C#N)C(=O)C(C)(C)[C@@H]5CC[C@]43C)[C@@H]2C1 [Compound 63235, (4aR,6aR,6bR,8aS,12aS,12bR,14aR,14bR)-4,4,6a,6b,11,11,14b-heptamethyl-3,13-dioxo-8a-(phenylthiomethyl)-3,4,4a,5,6,6a,6b,7,8,8a,9,10,11,12,12a,12b,13,14,14a,14b-icosahydropicene-2-carbonitrile] | ~80 | ~150 | – | – | –
CCOP(=O)(OCC)OC[C@]12CCC(C)(C)C[C@H]1[C@H]1C(=O)C[C@@H]3[C@@]4(C)C=C(C#N)C(=O)C(C)(C)[C@@H]4CC[C@@]3(C)[C@]1(C)CC2 [Compound 63239, ((4aS,6aR,6bR,8aR,12aR,12bR,14aR,14bS)-11-cyano-2,2,6a,6b,9,9,12a-heptamethyl-10,14-dioxo-1,2,3,4,4a,5,6,6a,6b,7,8,8a,9,10,12a,12b,13,14,14a,14b-icosahydropicen-4a-yl)methyl diethyl phosphate] | – | – | – | – | > 200
CC1(C)CC[C@]2(C[S+]([O-])c3ccccc3)CC[C@]3(C)[C@H](C(=O)C[C@@H]4[C@@]5(C)C=C(C#N)C(=O)C(C)(C)[C@@H]5CC[C@]43C)[C@@H]2C1 (stereo partly drawn) [Compound 63255, (4aR,6aR,6bR,8aS,12aS,12bR,14aR,14bR)-4,4,6a,6b,11,11,14b-heptamethyl-3,13-dioxo-8a-(phenylsulfinylmethyl)-3,4,4a,5,6,6a,6b,7,8,8a,9,10,11,12,12a,12b,13,14,14a,14b-icosahydropicene-2-carbonitrile] | ~50 | > 200 | – | – | –
CC1(C)CC[C@]2(CS(=O)(=O)c3ccccc3)CC[C@]3(C)[C@H](C(=O)C[C@@H]4[C@@]5(C)C=C(C#N)C(=O)C(C)(C)[C@@H]5CC[C@]43C)[C@@H]2C1 [Compound 63266, (4aR,6aR,6bR,8aS,12aS,12bR,14aR,14bR)-4,4,6a,6b,11,11,14b-heptamethyl-3,13-dioxo-8a-(phenylsulfonylmethyl)-3,4,4a,5,6,6a,6b,7,8,8a,9,10,11,12,12a,12b,13,14,14a,14b-icosahydropicene-2-carbonitrile] | ~30 | > 200 | – | – | –
CC1(C)CC[C@]2(CC(=O)O)CC[C@]3(C)[C@H](C(=O)C[C@@H]4[C@@]5(C)C=C(C#N)C(=O)C(C)(C)[C@@H]5CC[C@]43C)[C@@H]2C1 [Compound 63332, 2-((4aR,6aR,6bR,8aR,12aR,12bR,14aR,14bS)-11-cyano-2,2,6a,6b,9,9,12a-heptamethyl-10,14-dioxo-1,2,3,4,4a,5,6,6a,6b,7,8,8a,9,10,12a,12b,13,14,14a,14b-icosahydropicen-4a-yl)acetic acid] | ~50 | – | – | – | –
